Results on 30 compounds are retold here after US5089623A, “Certain imidate insecticides” (Imperial Chemical Industries Plc, priority 1990, dated 1992).

SMILES strings stand for the structures. Some results are limits rather than exact numbers.

What all share (type): in vivo
Assay [1] concerns Housefly [Musca domestica]. Put plainly: Housefly insecticidal test (HF). To be noted: per 25 female houseflies, 48 hours.
Assay [2] has as its system Tobacco Budworm [Heliothis virescens (Fabricius)] eggs. Description: Tobacco budworm egg test (TBW-E). Conditions: percent in solution.
Excerpt: Eggs: Paper towel patches of 2-day old eggs of the tobacco budworm were dipped in acetone solutions of the test compound and placed in petri dishes containing a portion of larval rearing medium. […] Test concentrations ranged from 0.1% downward.
Assay [3] concerns Cabbage Looper [Trichoplusia ni (Hubner)]. Put plainly: Cabbage looper test (CL). Conditions: second-instar larvae, 3-5 days, percent in solution.

Regarding `CC(C)C(=Nc1ccc(F)c(F)c1)OCc1coc(Cc2ccccc2)c1` [Compound 485], the “LC50 HF” value in assay [1] was determined as 24 µg. Also, in assay [2], the “LC50 TBW E” value is recorded as over 0.1%. Further, the “LC50 CL” value in assay [3] is listed as over 0.1%.

In the case of `CC(C)C(=Nc1ccc(F)c(Cl)c1)OCc1cc(F)cc(Oc2ccc(F)cc2)c1` [Compound 327], the “LC50 HF” value in assay [1] is over 100 µg. In addition, the “LC50 TBW E” value in assay [2] is listed as over 0.1%. The “LC50 CL” value in assay [3] was 0.005%.

For `CC(C)C(=Nc1c(Br)cc(F)cc1Br)OCc1cccc(Oc2ccccc2)c1` [Compound 130], in assay [1], the “LC50 HF” value is over 100 µg. The “LC50 TBW E” value in assay [2] is given as over 0.1%. The “LC50 CL” value in assay [3] was 0.005%.

For `Cc1cc(Cl)ccc1N=C(OCc1cccc(Oc2ccccc2)c1)C(C)(C)C` [Compound 109], the “LC50 HF” value in assay [1] is over 100 µg. Moreover, in assay [2], the “LC50 TBW E” value is on record as over 0.1%. Moreover, the “LC50 CL” value in assay [3] is given as 0.002%.

Consider `CC(C)C(=Nc1ccc2c(c1)OCO2)OCc1ccc(F)c(Oc2ccc(Cl)cc2)c1` [Compound 313], for which the “LC50 HF” value in assay [1] is over 100 µg. The “LC50 TBW E” value in assay [2] is 0.013%. The “LC50 CL” value in assay [3] came to 0.00025%.

In the case of `CC(C)(Cl)C(=Nc1ccc(F)c(Cl)c1)OCc1cccc(Oc2ccc(F)cc2)c1` [Compound 224], the “LC50 HF” value in assay [1] was over 100 µg. The “LC50 TBW E” value in assay [2] was over 0.1%. Also, the “LC50 CL” value in assay [3] stood at 0.001%.

In the case of `CCCCC(=Nc1ccc(F)c(Cl)c1)OCc1cccc(Oc2ccccc2)c1` [Compound 121], the “LC50 HF” value in assay [1] was over 100 µg. Moreover, the “LC50 TBW E” value in assay [2] is given as over 0.1%. Further, in assay [3], the “LC50 CL” value was 0.1%.

Turning to `CCC(C)C(=Nc1ccc(F)c(Cl)c1)OCc1ccc(F)c(Oc2ccccc2)c1` (stereo not drawn) [Compound 261], the “LC50 HF” value in assay [1] amounted to 24 µg. In assay [2], the “LC50 TBW E” value stood at 0.05%. Besides, the “LC50 CL” value in assay [3] is 0.001%.

On to `CC(C)c1ccc(N=C(OCc2cccc(Oc3ccc(F)cc3)c2)C(C)(C)C)cc1` [Compound 322], for which, in assay [1], the “LC50 HF” value was over 100 µg. In assay [2], the “LC50 TBW E” value is listed as over 0.1%. The “LC50 CL” value in assay [3] worked out at 0.007%.

Turning to `CC(C)C(=Nc1ccc(F)c(Cl)c1)OC(C)c1cccc(Oc2ccccc2)n1` (stereo not drawn) [Compound 498], the “LC50 HF” value in assay [1] turned out to be 49 µg. Besides, in assay [2], the “LC50 TBW E” value was over 0.1%. Further, the “LC50 CL” value in assay [3] is recorded as 0.002%.

For the compound `CC(=O)c1cccc(N=C(OCc2cccc(Oc3ccccc3)c2)C(C)C)c1` [Compound 170], in assay [1], the “LC50 HF” value came out at 37 µg. Moreover, in assay [2], the “LC50 TBW E” value is over 0.1%. Further, in assay [3], the “LC50 CL” value was found to be 0.1%.

For `CC(C)C(=Nc1cccc(C(F)(F)F)c1)OCc1cccc(Oc2cccc(F)c2)c1` [Compound 192], in assay [1], the “LC50 HF” value is 25 µg. In assay [2], the “LC50 TBW E” value was 0.07%. In addition, in assay [3], the “LC50 CL” value is listed as 0.0012%.

On to `CCCC(=Nc1ccc(Cl)c(Cl)c1)OCc1cccc(Oc2ccccc2)c1` [Compound 38], for which, in assay [1], the “LC50 HF” value came out at 33 µg. For the same compound, in assay [2], the “LC50 TBW E” value was determined as 0.05%. Also, the “LC50 CL” value in assay [3] worked out at 0.006%.

`CCC(=Nc1ccc(F)c(Cl)c1)OCc1cccc(Oc2ccc(F)cc2)c1` [Compound 115]: the “LC50 HF” value in assay [1] stood at 10 µg. Also, in assay [2], the “LC50 TBW E” value was determined as 0.075%. Moreover, the “LC50 CL” value in assay [3] was 0.0012%.

Regarding `Cc1c(COC(=Nc2ccc(Cl)cc2)C(C)C)cccc1-c1ccccc1` [Compound 455], the “LC50 HF” value in assay [1] was over 100 µg. Besides, in assay [2], the “LC50 TBW E” value is given as over 0.1%. For the same compound, the “LC50 CL” value in assay [3] is given as 0.0025%.

For the compound `CC(C)C(=Nc1ccc2c(c1)OCO2)OCc1cccc(Oc2ccc(C(F)(F)F)cc2)c1` [Compound 246], in assay [1], the “LC50 HF” value came out at 60 µg. In assay [2], the “LC50 TBW E” value is over 0.1%. Further, in assay [3], the “LC50 CL” value is reported as 0.004%.

In the case of `Cc1ccc(N=C(OCc2cccc(Oc3ccccc3)c2)C(C)C)cc1C` [Compound 158], the “LC50 HF” value in assay [1] was 9 µg. In addition, the “LC50 TBW E” value in assay [2] is 0.1%. In addition, the “LC50 CL” value in assay [3] amounted to 0.003%.

As for `Cc1ccc(Oc2cccc(COC(=Nc3cccc(C(F)(F)F)c3)C(C)C)n2)cc1` [Compound 495], the “LC50 HF” value in assay [1] is over 100 µg. In addition, the “LC50 TBW E” value in assay [2] stood at 0.1%. Besides, the “LC50 CL” value in assay [3] turned out to be 0.012%.

As to `CCC(C)C(=Nc1ccc(Cl)c(Cl)c1)OCc1cccc(Oc2ccccc2)c1` (stereo not drawn) [Compound 39], the “LC50 HF” value in assay [1] is over 100 µg. Also, the “LC50 TBW E” value in assay [2] is recorded as over 0.1%. The “LC50 CL” value in assay [3] is reported as 0.0023%.

With `CC(Cl)C(=Nc1ccc(Cl)c(Cl)c1)OCc1cccc(Oc2ccccc2)c1` (stereo not drawn) [Compound 27], the “LC50 HF” value in assay [1] is over 100 µg. For the same compound, in assay [2], the “LC50 TBW E” value is listed as over 0.1%. The “LC50 CL” value in assay [3] turned out to be 0.04%.

As for `CC(C)(F)C(=Nc1cccc(C(F)(F)F)c1)OCc1cccc(Oc2ccc(F)cc2)c1` [Compound 319], in assay [1], the “LC50 HF” value was determined as 44 µg. The “LC50 TBW E” value in assay [2] is over 0.1%. For the same compound, in assay [3], the “LC50 CL” value is 0.0007%.

For the compound `CC(C)C(=Nc1ccc(F)c(Cl)c1)OCc1cccc(Oc2cc(F)cc(F)c2)c1` [Compound 215], in assay [1], the “LC50 HF” value worked out at 75 µg. Moreover, the “LC50 TBW E” value in assay [2] was over 0.1%. For the same compound, the “LC50 CL” value in assay [3] was found to be 0.00075%.

For the compound `CC(C)C(=Nc1ccc(F)c(Br)c1)OCc1cccc(Oc2ccc(Br)cc2)c1` [Compound 276], the “LC50 HF” value in assay [1] came to 39 µg. In addition, the “LC50 TBW E” value in assay [2] was 0.1%. Also, the “LC50 CL” value in assay [3] is on record as 0.002%.

With `CC(C)C(=Nc1cccc(Cl)c1)OCc1cccc(Oc2ccc(Br)cc2)c1` [Compound 260], in assay [1], the “LC50 HF” value was 22 µg. Besides, the “LC50 TBW E” value in assay [2] is reported as over 0.1%. In assay [3], the “LC50 CL” value was 0.00075%.

Regarding `Cc1ccc(C)c(N=C(OCc2cccc(Oc3ccccc3)c2)C(C)C)c1` [Compound 250], the “LC50 HF” value in assay [1] is 38 µg. The “LC50 TBW E” value in assay [2] came to 0.03%. Moreover, the “LC50 CL” value in assay [3] amounted to 0.004%.

On to `CC(C)C(=Nc1ccc2c(c1)OCO2)OCc1c(F)c(F)c(F)c(F)c1F` [Compound 464], for which, in assay [1], the “LC50 HF” value is over 100 µg. Further, in assay [2], the “LC50 TBW E” value is over 0.1%. For the same compound, in assay [3], the “LC50 CL” value was determined as 0.08%.

Turning to `COc1cc(N=C(OCc2cccc(Oc3ccccc3)c2)C(C)C)cc(OC)c1OC` [Compound 248], the “LC50 HF” value in assay [1] stood at 40 µg. For the same compound, in assay [2], the “LC50 TBW E” value was over 0.1%. In assay [3], the “LC50 CL” value turned out to be 0.02%.

`CC(C)C(=Nc1ccc(F)c(Cl)c1)OCc1ccc(OCc2ccc(F)cc2)cc1` [Compound 487]: the “LC50 HF” value in assay [1] is over 100 µg. Also, the “LC50 TBW E” value in assay [2] is over 0.1%. In assay [3], the “LC50 CL” value is reported as 0.023%.

For the compound `CC(C)C(=Nc1ccc(F)c(Cl)c1)OCc1cccc(Oc2ccc(I)cc2)c1` [Compound 447], in assay [1], the “LC50 HF” value is 33 µg. Moreover, the “LC50 TBW E” value in assay [2] is reported as over 0.1%. Moreover, the “LC50 CL” value in assay [3] was 0.0009%.

For `CC(C)C(=Nc1cc(F)ccc1F)OCc1cccc(Oc2ccccc2)c1` [Compound 56], the “LC50 HF” value in assay [1] turned out to be 91 µg. Moreover, the “LC50 TBW E” value in assay [2] is over 0.05%. In addition, the “LC50 CL” value in assay [3] is on record as 0.01%.
